Assay results published in patent US20240228487A1, “FUSED HETEROCYCLIC COMPOUND AND APPLICATION THEREOF, PHARMACEUTICAL COMPOSITIONS CONTAINING SAME AND APPLICATION THEREOF” (ZHEJIANG UNIVERSITY, priority 2021, published 2024).

What was measured:
[1] = target: T1, human TRPM2 channels (Homo sapiens, UniProt O94759); assay: whole cell patch clamp, inhibition of TRPM2 channel current; assay type: cell-based; settings: HEK293 cells stably expressing human TRPM2, 500 μM ADPR
T1 construct: expressed in transfected cells
Experimental: The fused heterocyclic compound of the present invention has an inhibitory effect on the TRPM2 channel, and its pharmacological activity is measured using whole cell patch clamp technology, the corresponding steps are as follows: Incubating HEK293 cells stably expressing human TRPM2 channels in DMEM/F-12 medium containing 10% bovine serum, 50 units/mL of penicillin and […] of streptomycin under the condition of 5% CO2 and 37° C. The cells before testing are stored in the extracellular fluid (147 mM NaCl, 2 mM KCl, 1 mM MgCl2, 2 mM CaCl2, 10 mM HEPES, 13 mM glucose, pH 7.4). The electrode is filled with the electrode internal solution (147 mM NaCl, 0.05 mM EGTA, 1 mM MgCl2, 10 mM HEPES, 0.5 mM ADPR, pH=7.3), and the resistance is maintained at 3-5 M Ω. Administering ADPR into cells through electrodes, and detecting the ADPR concentration used to activate TRPM2 as 500 μM, when detecting a stable current, perfusing the corresponding concentration of fused heterocyclic compound II-1 into the extracellular fluid for at least 60 seconds. record the change in current magnitude using voltage ramp mode, changing the voltage from −100 mV to+100 mV within 500 ms, with a normal clamp voltage of 0 mV and a TRPM every 5 seconds; finally, replacing the extracellular fluid with a solution with pH=5.0 to block the TRPM2 current, the electrophysiological current test results obtained are shown in Table 1, and the electrophysiological current graph obtained is shown in FIG. 1. Similarly, administering corresponding concentrations of other fused heterocyclic compounds (II-2˜II-54, III-1˜III-11) into the extracellular fluid, taking electrophysiological tests using the same method, the results are shown in Table 1. The electrophysiological representative current graphs of some fused heterocyclic compounds (II-9, II-19, and II-36) inhibiting TRPM2 channel current are shown in FIG. 1.

[2] = system: dopaminergic neurons differentiated from iPSC derived from disseminated PD patients; assay: mitochondrial fusion morphology (Mitotracker, Girk2 labeling) of iPSC differentiated dopaminergic neurons; assay type: cell-based, human; settings: II-23 0.6 μM, ACA 0.5 μM; Mitotracker staining, Girk2-positive neurons
Experimental: Using normal and disseminated PD patient-derived induced pluripotent stem cells (iPSC), performing drug interventions using the TRPM2 inhibitors ACA and II-23 after they were induced and differentiated into mature dopaminergic neurons, the drug treating method is as follows: • a. Calculating the materials for the experiment, and starting preparing when the dopaminergic neurons are differentiated to the 8th day. The petri dishes should be treated with 33 μg/mL PDL overnight and washed with sterilized water. After drying, 2 μg/mL of laminin was added and incubated overnight. Both PDL and laminin can be recycled for reuse. • b. […] Fluorescence confocal imaging was performed using a confocal dish inoculated with 2 mL/dish, and cell viability assays were performed using a 96-well plate inoculated with 100 μL/well. […]
Positive dopamine neurons were labeled with a dopaminergic neuron marker molecule Girk2 antibody susceptible for SNc, and cellular mitochondria were labeled with the mitochondrial dye mitotracker as in FIG. 15. […] Finally, performing the fluorescence imaging: removing the secondary antibody, and washing three times with 1×PBS, adding 50% Glycerol for fluorescence protection, and then imaging with a Zeiss LSM880 laser confocal microscope, as shown in FIG. 15.

[3] = system: dopaminergic neurons differentiated from iPSC derived from disseminated PD patients; assay: cell viability (cell titer glo) of iPSC differentiated dopaminergic neurons; assay type: cell-based, human; settings: II-23 0.6 μM, ACA 0.5 μM, from day 15 of culture; CTG kit
Experimental: Using normal and disseminated PD patient-derived induced pluripotent stem cells (iPSC), performing drug interventions using the TRPM2 inhibitors ACA and II-23 after they were induced and differentiated into mature dopaminergic neurons, the drug treating method is as follows: • a. Calculating the materials for the experiment, and starting preparing when the dopaminergic neurons are differentiated to the 8th day. The petri dishes should be treated with 33 μg/mL PDL overnight and washed with sterilized water. After drying, 2 μg/mL of laminin was added and incubated overnight. Both PDL and laminin can be recycled for reuse. • b. Digesting and collecting the differentiated cells with Accutase, and counting with a cell counting plate, and then diluting to 500,000/mL with maturation medium (Y-27632 should be added). Fluorescence confocal imaging was performed using a confocal dish inoculated with 2 mL/dish, and cell viability assays were performed using a 96-well plate inoculated with 100 μL/well. Taking this time point as the 10th day, changing to Y-27632-free medium on the 11th day, and changing the medium every two days. • c. When the cells were cultured to the 15th day, treating the drugs to a final concentration with the medium, the working concentration of ACA is 0.5 μM, and the working concentration of II-23 is 0.6 μM, and the drug-containing medium was changed every four days. […]

T1 sequence (O94759 whole entry): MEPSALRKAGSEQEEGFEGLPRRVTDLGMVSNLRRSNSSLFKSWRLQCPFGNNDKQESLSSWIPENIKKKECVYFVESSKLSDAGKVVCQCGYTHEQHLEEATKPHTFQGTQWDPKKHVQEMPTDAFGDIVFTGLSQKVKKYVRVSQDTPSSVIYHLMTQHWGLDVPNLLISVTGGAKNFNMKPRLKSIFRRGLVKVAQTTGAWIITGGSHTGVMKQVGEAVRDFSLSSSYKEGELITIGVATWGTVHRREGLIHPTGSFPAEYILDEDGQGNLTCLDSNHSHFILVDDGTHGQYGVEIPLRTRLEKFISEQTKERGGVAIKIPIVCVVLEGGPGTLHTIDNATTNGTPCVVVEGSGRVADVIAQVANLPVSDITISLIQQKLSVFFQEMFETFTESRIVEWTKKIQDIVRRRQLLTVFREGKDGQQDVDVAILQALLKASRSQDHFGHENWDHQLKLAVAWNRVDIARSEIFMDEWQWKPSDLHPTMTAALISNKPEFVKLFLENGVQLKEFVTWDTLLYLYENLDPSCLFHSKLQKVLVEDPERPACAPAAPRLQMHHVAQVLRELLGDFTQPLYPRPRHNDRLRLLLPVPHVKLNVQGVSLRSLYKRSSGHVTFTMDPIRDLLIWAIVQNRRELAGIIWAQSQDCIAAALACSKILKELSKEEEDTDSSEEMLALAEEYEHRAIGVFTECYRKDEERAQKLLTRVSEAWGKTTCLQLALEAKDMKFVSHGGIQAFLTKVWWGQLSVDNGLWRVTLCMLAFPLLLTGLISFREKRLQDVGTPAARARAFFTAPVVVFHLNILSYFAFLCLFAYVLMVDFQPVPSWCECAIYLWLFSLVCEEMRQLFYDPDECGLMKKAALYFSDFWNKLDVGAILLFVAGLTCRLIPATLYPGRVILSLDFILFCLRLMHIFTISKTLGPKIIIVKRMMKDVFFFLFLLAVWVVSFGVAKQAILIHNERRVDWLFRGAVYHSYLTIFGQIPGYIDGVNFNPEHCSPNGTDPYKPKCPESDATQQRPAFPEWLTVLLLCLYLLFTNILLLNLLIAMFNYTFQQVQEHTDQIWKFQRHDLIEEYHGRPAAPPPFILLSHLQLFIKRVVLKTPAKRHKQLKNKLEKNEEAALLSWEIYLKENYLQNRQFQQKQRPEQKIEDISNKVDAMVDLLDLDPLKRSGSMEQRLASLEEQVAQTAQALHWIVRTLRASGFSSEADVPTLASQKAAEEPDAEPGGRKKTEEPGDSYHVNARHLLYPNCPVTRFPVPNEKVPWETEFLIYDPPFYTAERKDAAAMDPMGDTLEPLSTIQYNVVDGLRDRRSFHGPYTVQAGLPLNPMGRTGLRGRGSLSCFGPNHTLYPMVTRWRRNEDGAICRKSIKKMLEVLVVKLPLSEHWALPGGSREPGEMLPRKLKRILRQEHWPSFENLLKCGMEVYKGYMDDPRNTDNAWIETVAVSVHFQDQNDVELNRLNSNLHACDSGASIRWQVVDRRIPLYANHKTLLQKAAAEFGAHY

CCN(CC)C(=O)c1cc(C(=O)c2ccccc2)n2cccc2c1 [II-23, 5-Benzoyl-N, N-diethylindolizine-7-formamide]
IC50 [1]: 1 to 10 µM
excessive mitochondrial fusion in dopaminergic neurons derived from PD patients [2]: reversed
cell viability of differentiated dopaminergic neurons derived from disseminated PD patients [3]: restored
